The test system of test [1] is HeLa S3 (human cervical carcinoma). On the set-up: method as in PMID 30153471, PMID 33999337. The conditions noted are these: MTT; results based on previous work; read-out: IC50 ± SEM, HeLa S3; cited from earlier work.
Test [2] has as its system Hep G2 (human hepatocellular carcinoma). Set-up: method as in PMID 30153471, PMID 33999337. The conditions noted are these: MTT; results based on previous work; read-out: IC50 ± SEM, Hep G2; cited from earlier work.
In test [3] the target is T1, COX-1 (purified PGHS-1 from ram seminal vesicles) (Ovis aries, UniProt P05979).
T1 construct: Purified PGHS-1 from ram seminal vesicles for COX-1; purchased Cayman Chemical Co., Ann Arbor, MI, USA; host or cells: ram seminal vesicles (tissue-purified)
T1 sequence (P05979 25-600): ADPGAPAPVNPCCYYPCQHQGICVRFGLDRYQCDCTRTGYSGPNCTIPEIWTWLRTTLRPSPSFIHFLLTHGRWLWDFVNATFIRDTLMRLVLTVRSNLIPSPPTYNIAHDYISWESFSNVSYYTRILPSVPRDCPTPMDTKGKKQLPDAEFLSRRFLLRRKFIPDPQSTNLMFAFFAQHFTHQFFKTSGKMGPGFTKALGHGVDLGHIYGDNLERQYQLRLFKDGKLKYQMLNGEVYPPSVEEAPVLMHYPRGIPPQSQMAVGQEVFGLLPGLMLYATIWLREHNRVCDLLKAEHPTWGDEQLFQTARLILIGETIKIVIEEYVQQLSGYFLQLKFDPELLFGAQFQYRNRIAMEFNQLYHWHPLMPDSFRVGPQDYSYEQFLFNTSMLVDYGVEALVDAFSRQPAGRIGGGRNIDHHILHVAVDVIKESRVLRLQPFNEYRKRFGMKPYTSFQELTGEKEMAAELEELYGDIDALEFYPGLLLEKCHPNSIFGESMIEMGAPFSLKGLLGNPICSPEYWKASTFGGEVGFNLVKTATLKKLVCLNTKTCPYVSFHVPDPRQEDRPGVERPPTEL
The test can be described thus: COX-1 enzyme inhibition assay (PGE2 ELISA). The test is classed as biochemical. The conditions noted are these: mean ± SD (n = 4). The method, then: (§1) The anti-inflammatory effects of the isolated compounds were also screened on COX-1 and COX-2 enzymes inhibition at a final concentration of 20 µM.
(§2) Purified PGHS-1 from ram seminal vesicles for COX-1 and human recombinant PGHS-2 for COX-2 (Cayman Chemical Co., Ann Arbor, MI, USA) were used for the COX inhibition assays. Experiments were performed in a 96-well plate format, as previously described. Briefly, the incubation mixture contained 180 µL of 0.1 M TRIS/HCl-buffer pH 8.0 (Roth, Karlsruhe, Germany), 50 µM Na2EDTA (only for COX-2, Titriplex III, Merck, Darmstadt, Germany), 18 mM L-epinepherine bitartrate (Fluka, Buchs, Switzerland), 5 µM porcine hematin (MP Biomedicals LLC, Solon, OH, USA), and COX-1 or COX-2 enzymes (0.2 U/well). Ten microliters of tested compounds (dissolved in DMSO with a final concentration of 20 µM) was added and the mixture was pre-incubated for 5 min at room temperature. Thereafter, 10 µL of 5 µM arachidonic acid (Ann Arbor, Michigan USA) was added to the mixture and incubated for 20 min at 37 °C. The reaction was subsequently stopped by adding 10 µL of 10% (v/v) formic acid. The concentration of PGE2 generated in the reaction was quantitatively measured by a competitive PGE2 ELISA kit (Enzo Life Sciences Inc., Farmingdale, NY, USA) according to the manufacturer’s protocol and previous procedure. The absorbance at 405 nm was measured using a Hidex Sense Microplate Reader (Hidex, Turku, Finland). […] The assays were performed in duplicates and repeated in two independent experiments.

Test [4] relates to four cancer cells (KB, HeLa S3, MCF-7, and Hep G2). Particulars: HeLa S3, MCF-7, Hep G2, earlier studies, read-out: IC50 values against four cancer cells; cited from earlier work.
Test [5] has as its system HT-29 (human colon adenocarcinoma). Set-up: method as in PMID 30153471, PMID 33999337. The conditions noted are these: MTT; results based on previous work; read-out: IC50 ± SEM, HT-29; cited from earlier work.
The target in test [6] is T2, COX-2 (human recombinant PGHS-2) (Homo sapiens, UniProt P35354).
T2 construct: purchased Cayman Chemical Co., Ann Arbor, MI, USA
T2 sequence (P35354 18-604): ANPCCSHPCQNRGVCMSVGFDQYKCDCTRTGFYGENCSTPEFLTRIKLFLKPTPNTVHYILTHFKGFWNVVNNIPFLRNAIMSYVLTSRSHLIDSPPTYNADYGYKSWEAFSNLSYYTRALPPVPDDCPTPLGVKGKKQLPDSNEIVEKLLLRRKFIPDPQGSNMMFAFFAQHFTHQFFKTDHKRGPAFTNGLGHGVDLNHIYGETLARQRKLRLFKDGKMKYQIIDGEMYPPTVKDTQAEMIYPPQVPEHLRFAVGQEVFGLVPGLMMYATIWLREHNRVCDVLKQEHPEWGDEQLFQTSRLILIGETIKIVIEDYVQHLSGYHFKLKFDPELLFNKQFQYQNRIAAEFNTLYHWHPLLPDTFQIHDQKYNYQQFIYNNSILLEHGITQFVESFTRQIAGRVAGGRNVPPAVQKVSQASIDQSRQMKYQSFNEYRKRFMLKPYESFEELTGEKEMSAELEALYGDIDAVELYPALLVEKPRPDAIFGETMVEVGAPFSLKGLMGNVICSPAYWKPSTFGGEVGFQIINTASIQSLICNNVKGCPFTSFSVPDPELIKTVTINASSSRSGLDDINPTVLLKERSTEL
Kind of test: COX-2 enzyme inhibition assay (PGE2 ELISA). The test is classed as biochemical. Particulars: mean ± SD (n = 4). The method, then:
as §1, §2
Background: In an ELISA, binding on a coated surface is turned into a signal by an enzyme label.

For test [7], the system named is MCF-7 (human breast adenocarcinoma). Set-up: method as in PMID 30153471, PMID 33999337. Particulars: MTT; results based on previous work; read-out: IC50 ± SEM, MCF-7; cited from earlier work.
Test [8] concerns KB (human epidermoid carcinoma). Set-up: method as in PMID 30153471, PMID 33999337. Particulars: MTT; results based on previous work; read-out: IC50 ± SEM, KB; cited from earlier work.
Test [9] has as its system HT-29 (human colon adenocarcinoma). The test can be described thus: MTT cytotoxic activity assay, HT-29. The test is classed as cell-based. The conditions noted are these: 72 h, mean ± SEM of three replicates. The method, then:
(§3) The cytotoxic activity of the isolated compounds was evaluated using the MTT viability assay with doxorubicin as the positive control and the results are presented in Table 2.
(§4) The MTT colorimetric method was performed to evaluate cytotoxic activity of the isolated compounds against human epidermoid carcinoma (KB; ATCC CCL17), human cervical carcinoma (HeLa S3; ATCC CCL2-2), human colon adenocarcinoma (HT-29; ATCC HTB-38), human breast adenocarcinoma (MCF-7; ATCC HTB-22), and human hepatocellular carcinoma (Hep G2; ATCC HB-8065) cell lines according to the previous method. […] After centrifugation at 1400 rpm for 5 min at 4 °C, the supernatant was decanted and DMSO (100 µL/well) was added to allow formazan product solubilization, which was subsequently measured by a microplate reader (Tecan Trading AG, Switzerland) at wavelength 550 nm. […] The results are expressed as the mean values of three replicates for three independent experiments. IC50 values were determined by graphical analysis using SigmaPlot 10 (Systat Software Inc., San Jose, CA, USA), obtained by plotting the cell viability percentage versus sample concentration.

For test [10], the system named is Hep G2 (human hepatocellular carcinoma). Kind of test: MTT cytotoxic activity assay, Hep G2. The test is classed as cell-based. The conditions noted are these: HepG2, 72 h, mean ± SEM of three replicates. The method, then: as §3, §4
For orientation: Tetrazolium dyes change colour on reduction, which living cells bring about.

The subject of test [11] is KB (human epidermoid carcinoma). Kind of test: MTT cytotoxic activity assay, KB. The test is classed as cell-based. The conditions noted are these: 72 h, mean ± SEM of three replicates. The method, then: as §3
(§5) The MTT colorimetric method was performed to evaluate cytotoxic activity of the isolated compounds against human epidermoid carcinoma (KB; ATCC CCL17), human cervical carcinoma (HeLa S3; ATCC CCL2-2), human colon adenocarcinoma (HT-29; ATCC HTB-38), human breast adenocarcinoma (MCF-7; ATCC HTB-22), and human hepatocellular carcinoma (Hep G2; ATCC HB-8065) cell lines according to the previous method. The cancer cells were cultured in MEM containing 10% fetal bovine serum in the presence of 100 U/mL penicillin and 100 μg/mL streptomycin sulphate (Gibco, Rockville, MD, USA), seeded in a 96-well plate (3000 cells/well), and pre-incubated at 37 °C for 24 h in a 5% CO2 humidified atmosphere. The tested compounds with serial concentrations (0.3–100 μM) were added and incubated for a further 72 h in the same condition. At the end of treatment, 20 µL of MTT solution (5 mg/mL in PBS, Sigma, St. Louis, MI, USA) was added to each well and further incubated for 3 h. After centrifugation at 1400 rpm for 5 min at 4 °C, the supernatant was decanted and DMSO (100 µL/well) was added to allow formazan product solubilization, which was subsequently measured by a microplate reader (Tecan Trading AG, Switzerland) at wavelength 550 nm. Control cells were treated with 0.1% DMSO. Doxorubicin (tested concentrations: 0.01–3.0 μM, Sigma) was used as the positive control. The results are expressed as the mean values of three replicates for three independent experiments. IC50 values were determined by graphical analysis using SigmaPlot 10 (Systat Software Inc., San Jose, CA, USA), obtained by plotting the cell viability percentage versus sample concentration.

In test [12] the test system is HeLa S3 (human cervical carcinoma). Kind of test: MTT cytotoxic activity assay, HeLa S3. The test is classed as cell-based. The conditions noted are these: 72 h, mean ± SEM of three replicates. The method, then: as §3, §5
Test [13] deals with MCF-7 (human breast adenocarcinoma). Kind of test: MTT cytotoxic activity assay, MCF-7. It is filed as cell-based. Particulars: MCF7, 72 h, mean ± SEM of three replicates. The method, then: as §3, §4
In test [14] the target is T1, COX-1 (purified PGHS-1 from ram seminal vesicles). On the set-up: method as in PMID 32627543. Particulars: at 20 µM; cited from earlier work.

Read-outs that look alike come from different tables or passages of the source.

In general, IC50 refers to the concentration needed to halve the response being measured. The term inhibition denotes the share of the control response that was lost under treatment. As to `CC(C)=CCc1c2c(c3oc4c(O)c(O)ccc4c(=O)c3c1O)C(C)(C)[C@H](C)O2` [Compound 8, formoxanthone C], the IC50 in test [1] was 300 ± 100 nM; in test [2], 3.8 ± 0.5 µM; in test [4], under 10 µM; in test [5], 21.9 ± 1.2 µM; in [7], 4.9 ± 0.4 µM; in [8] it was 200 ± 100 nM. Also, the inhibition at 20 µM in [3] is 24 ± 15%; in test [6], under 10%.

`COc1cccc2c1C(=O)c1c(O)c3c(c(O)c1C2=O)C[C@@](O)(C(=O)CO)C[C@@H]3O[C@H]1C[C@H](N)[C@H](O)[C@H](C)O1` [Doxorubicin, reference compound]: the IC50 in test [9] came out at 590 ± 30 nM; in [10], 1000 ± 170 nM; in test [11] it was 20 ± 10 nM; in test [12] it was 150 ± 20 nM; in test [13], 1290 ± 20 nM.

`C=C(C)[C@H]1C[C@@H](C[C@@]23C[C@@H](/C=C/C(C)C)C(C)(C)[C@@](CC=C(C)C)(C2=O)c2oc4cc(O)c(O)cc4c(=O)c2C3=O)C1(C)C` [picrorhizone H]: the “COX-1 inhibitory activity, % inhibition” value in test [14] is reported as 35.2 ± 9.6%.

The record behind these values is paper PMC8587515, “Cytotoxic and Anti-Inflammatory Activities of Dihydroisocoumarin and Xanthone Derivatives from Garcinia picrorhiza” (Molecules, 2021).
